Experimental data reported in patent publication US20220040252A1, “TREATMENT OF PROSTATE CANCER BY ANDROGEN ABLATION AND IL-8 BLOCKADE” (The Trustees of Columbia University in the City of New York, priority 2019, published 2022).
Where two headings read alike, the source gives them in different places.

Tests used:
Myc-Cap tumors = experiment: Immune infiltration (PMN-MDSC, TIL, TAM) of Myc-Cap tumors by flow cytometry; format: in vivo, mouse; settings: Myc-Cap allografts after ADT, FIG. 3b
Method: Eight-week-old male FVB/NJ and J:NU mice were subcutaneously inoculated in the right flank with either Myc-Cap or MCRedAL (1×10^6 cells/mouse), and LNCaP or PC3 (3×10^6 cells/mouse), respectively. Tumor diameters were measured with electronic calipers every 3 days as indicated and the tumor volume was calculated using the formula: [longest diameter×(shortest diameter)^2]/2. Myc-Cap tumor bearing mice received androgen-deprivation therapy (ADT) 4 weeks after tumor implantation when tumor volume reached ˜500 mm^3, as indicated in figure legends. […] Onset of castration-resistance was defined as the time to tumor size increased by 30% (˜650 mm^3) after ADT. Chemical castration by ADT was compared to bilateral orchiectomy as described in FIG. 1a. […]
Single-cell suspensions from prostate tumor and tissues were prepared using the Mouse Tumor Dissociation Kit according to the manufacturer's recommendations (Miltenyi). […] Gates of cytokines were determined by fluorescence minus one (FMO) controls. Staining was visualized by fluorescenceactivated cell sorting (FACS) analysis using a BD FACSCelesta™ (BD Biosciences) and analyzed using FlowJo® (Flowjo LLC). […]

Cxcl15 [1] = experiment: Expression analysis of sorted MCRedAL tumor cells pre- and post-ADT; format: in vivo, mouse
Method: Eight-week-old male FVB/NJ and J:NU mice were subcutaneously inoculated in the right flank with either Myc-Cap or MCRedAL (1×10^6 cells/mouse), and LNCaP or PC3 (3×10^6 cells/mouse), respectively. Tumor diameters were measured with electronic calipers every 3 days as indicated and the tumor volume was calculated using the formula: [longest diameter×(shortest diameter)^2]/2. Myc-Cap tumor bearing mice received androgen-deprivation therapy (ADT) 4 weeks after tumor implantation when tumor volume reached ˜500 mm^3, as indicated in figure legends. […]
Tumors collected at different treatment time points were minced, lysed in CelLytic MT (Sigma) containing halt protease and phosphatase inhibitor (Thermo Fisher) in a 1:100 ratio, and incubated on ice for 30 minutes with intermittent vortexing. […] IL-8 and Cxcl15 were analyzed by ELISA kits following the manufacturer's instructions (BD Bioscience and R&D Systems, respectively).
MCRedAL tumor were harvested when their tumor volume reached ˜500 mm^3 (CS group), and 7 days after chemical castration (ADT). […] Resulting CEL files were analyzed in Affymetrix Expression Console (v. 1.4) using the SST-RMA method, and all samples passed the quality control. Log2 probe intensities were extracted from CEL (signal intensity) files and normalized using RMA quantile normalization, then further analyzed using Partek Genomics Suite v6.6. […]

IL-8 [2] = settings: high-risk PCa patients treated with ADT (degarelix 240 mg SQ) vs untreated controls, FIG. 2i
Method: Formalin fixed, paraffin embedded (FFPE) human prostate cancer samples were obtained from consented patients treated with ADT (degarelix; 240 mg SQ) in a neo-adjuvant trial (NCT01696877) and matched control radical prostatectomies were obtained from patients treated at the Johns Hopkins Sidney Kimmel Comprehensive Cancer Center (Baltimore, Md.) under IRB-approved clinical protocol J1265. All patients provided written, informed consent. Total RNA was extracted using Trizol (Ambion). cDNA was prepared from total RNA preps using the RNA to cDNA EcoDry Premix (Clontech). Real-time assays were conducted using TaqMan real-time probes (Applied Biosystems). AA CT method was used for relative gene expression. Expression of the target gene was normalized to the reference gene (18S) and the mean expression level of the control group. LCM samples were normalized to 18S, TBP, and GAPDH reference genes. […] Sections were deparaffinized, hydrated and stained with hematoxylin prior to microdissection. Individual cancer cells and cancer cell clusters were microdissected by a trained pathologist using a LMD 7000 laser capture microscope (Leica). RNA was recovered from the microdisseceted material using the RNeasy FFPE kit (Qiagen). Quantitative RT-PCR was performed as described above. For the analysis, a Mann-Whitney U test was performed.

Cxcl15 [3] = experiment: Cxcl15 expression in benign prostate epithelium of mice (RISH, qRT-PCR); format: in vivo, mouse; settings: WT mice treated with ADT followed by testosterone repletion, FIG. 2g
Description: Eight-week-old male HOXB13-GFP mice carrying the Hoxb13-rtTA transgene and a Tetracycline operator—Histone 2B-Green Fluorescent Protein (TetO-H2BGFP), which results on GFP expression being restricted to luminal epithelial Hoxb13^+ cells (described previously), were castrated via bilateral orchiectomy. A cycle of prostate regression/regeneration was induced as described previously. Briefly, mice were allowed to regress for six weeks to reach the fully involuted state. Mice were randomized to ADT or ADT+testosterone (T) treatment groups. Testosterone was administered for four weeks for prostate regeneration by subcutaneous pellets; this regimen yields physiological levels of serum testosterone. All mice received 2 mg/ml of Doxycycline (Sigma) in the drinking water to induce GFP expression under the control of the luminal epithelial promoter, HoxB13, one week prior euthanizing them for their analysis.
Manual fluorescent RNAScope was performed on formalin-fixed and zinc-fixed paraffin embedded sections using company protocols. Briefly, sections were cut at 5 μm, air dried overnight, baked at 60° C. for 1 hrs, dewaxed and air-dried before pre-treatments. RNAScope Cxcl15, 3-plex positive control probes (Polr2a, Ppib, Ubc) and 3-plex negative control probes (DapB of Bacillus subtilis strain) from Advanced Cell Diagnostics (ACD) were used in this study. […]

IL-8 [4] = settings: men undergoing ADT with testosterone supplementation vs ADT, FIG. 2h; cited from earlier work
IL-8 [5] = experiment: qRT-PCR quantification of IL-8 in LNCaP cells; format: cell-based, human; settings: LNCaP cells in androgen-free media, FIG. 1f
Method: Myc-Cap, derived from spontaneous prostate cancer in c-Myc transgenic mice, was a generous gift from Dr. C. Sawyers. To generate MCRedAL, Myc-Cap cells were transfected with pRetroQ-mCherry-C1 (Clontech) using lipofectamine 2000 (Invitrogen) and isolated by FACS sorting based on mCherry expression (Extended Data FIG. 1a). Myc-Cap and MCRedAL cells were cultured in DMEM as previously described. LNCaP, VCaP, E006AA, CWR22Rv1, DU145, and PC3 cell lines were obtained and cultured as recommended by the ATCC. LAPC4 (a gift from Dr. S. Yegnasubramanian) were maintained in RPMI-1640 (Corning) supplemented with 10% fetal bovine serum (FBS; Gemini Bio-Products). Androgen independent LNCaP-abl cells were a gift from Dr. Z. Culig and cultured as described previously^29. LAPC4-CR and VCaP-CR (a gift from S. Yegnasubramanian) were derived by passaging LAPC4 and VCaP cells through castrated animals and further subculturing in RPMI-1640 supplemented with 10% charcoal stripped serum (CSS; Gemini Bio-Products) supplemented with 1×B-27 Neuronal Supplement (Gibco). For experiments when cells were grown in androgen-free conditions, 10% FBS was substituted for 10% CSS in complete media. For migration/chemotaxis assays, prostate cancer cell lines were cultured in complete media containing either 0.5% or 2.5% FBS for human and murine cells, respectively. […]

IL-8 (CXCL8) promoter [6] = settings: LNCaP cells, DHT 100 nM
Method: Chromatin immunoprecipitation was performed. In brief, LNCaP cells were washed with serum-free media and then grown in media containing 10% charcoal stripped FBS for 48 hours. Cells were treated with 100 nM DHT or vehicle for 8 hours. DNA was cross-linked with 1% formaldehyde in PBS for 10 minutes and crosslinking was quenched by addition of 0.125 M glycine. Fixed cells were then lysed in lysis buffer (1% SDS, 5 mM EDTA, 50 mM Tris HCl, pH8.1) and sonicated to a fragment size of 200-600 bp using a Covaris water bath sonicator (Woburn, Mass.). Sheared chromatin was then incubated with primary antibodies (AR [06-680, Millipore], H3K4me3 [ab8580, Abcam], phospho-SerS RNA polymerase 2 [ab5131, Abcam], RNA polymerase 2 [4H8, Cell Signaling Technologies] or control IgG [Cell Signaling Technologies]) overnight at 4° C. Complexes were immobilized on Dynabeads (Thermo Fisher) by incubating for 4 hours at 4° C. Beads were sequentially washed with TSEI (0.1% SDS, 1% Triton X-100, 2 mM EDTA, 20 mM Tris HCl, pH 8.1, 150 mM NaCl), TSEII (0.1% SDS, 1% Triton X-100, 2 mM EDTA, 20 mM Tris HCl, pH 8.1, 500 mM NaCl) and TSEIII (0.25 M LiCl, 1% NP-40, 1% deoxycholate, 1 mM EDTA, 10 mM Tris HCl, pH 8.1). […] Enriched DNA libraries were analyzed using primers specific to IL-8 locus: Forward: 5′ [sequence] […] 3′ (SEQ ID NO: 2) using quantitative (q) RT-PCR. […]

PSA (KLK3) promoter = settings: LNCaP cells, DHT 100 nM, FIG. 1h right
Method: Chromatin immunoprecipitation was performed. In brief, LNCaP cells were washed with serum-free media and then grown in media containing 10% charcoal stripped FBS for 48 hours. Cells were treated with 100 nM DHT or vehicle for 8 hours. […] Fixed cells were then lysed in lysis buffer (1% SDS, 5 mM EDTA, 50 mM Tris HCl, pH8.1) and sonicated to a fragment size of 200-600 bp using a Covaris water bath sonicator (Woburn, Mass.). Sheared chromatin was then incubated with primary antibodies (AR [06-680, Millipore], H3K4me3 [ab8580, Abcam], phospho-SerS RNA polymerase 2 [ab5131, Abcam], RNA polymerase 2 [4H8, Cell Signaling Technologies] or control IgG [Cell Signaling Technologies]) overnight at 4° C. Complexes were immobilized on Dynabeads (Thermo Fisher) by incubating for 4 hours at 4° C. Beads were sequentially washed with TSEI (0.1% SDS, 1% Triton X-100, 2 mM EDTA, 20 mM Tris HCl, pH 8.1, 150 mM NaCl), TSEII (0.1% SDS, 1% Triton X-100, 2 mM EDTA, 20 mM Tris HCl, pH 8.1, 500 mM NaCl) and TSEIII (0.25 M LiCl, 1% NP-40, 1% deoxycholate, 1 mM EDTA, 10 mM Tris HCl, pH 8.1). DNA was eluted with IP Elution buffer (1% SDS, 0.1M NaHCO3, proteinase K) and incubated at 56° C. for 15 minutes. […] Data is shown as relative enrichment normalized to input DNA.

IL-8 (CXCL8) promoter [7] = settings: LNCaP cells, cited from earlier work

**Q.** What does the source list for degarelix acetate [ADT]?
**A.** T cell influx into tumor (Myc-Cap tumors): promoted a transient T cell influx; tumor associated macrophage (TAM) populations (Myc-Cap tumors): without significant changes in tumor associated macrophage (TAM) populations; Cxcl15 transcript (microarray) (Cxcl15 [1]; MCRedAL tumor cells, 7 days after chemical castration vs castration-sensitive, FIG. 1d): significantly up-regulated post-ADT; Cxcl15 (qRT-PCR and ELISA) (Cxcl15 [1]; post-ADT, data not shown): confirmed the upregulation of Cxcl15 post-ADT at the protein level; IL-8 expression (qRT-PCR) (IL-8 [2]): increased IL-8 expression

**Q.** Which “epithelial Cxcl15 expression” value (Cxcl15 [3]) does the source give for `C[C@]12CC[C@H]3[C@@H](CCC4=CC(=O)CC[C@@]43C)[C@@H]1CC[C@@H]2O` [testosterone] here?
**A.** The value was “expression significantly decreased by testosterone repletion”.

**Q.** And the “IL-8 mRNA expression” value (IL-8 [4])?
**A.** The value was “significantly reduced IL-8 mRNA expression”.

**Q.** For `C[C@]12CCC(=O)C[C@@H]1CC[C@@H]1[C@@H]2CC[C@]2(C)[C@@H](O)CC[C@@H]12` [DHT, dihydrotestosterone], which “IL-8 expression (qRT-PCR)” value (IL-8 [5]) is on record?
**A.** Its value is “did not affect IL-8 expression”.

**Q.** And the “androgen dependent AR binding at the IL-8 promoter (ChIP-qRT-PCR)” value (IL-8 (CXCL8) promoter [6]; FIG. 1h)?
**A.** The value was “verified by ChIP-qRT-PCR”.

**Q.** And the “binding of pol II, pSer2 pol II and H3K4me3 to the IL-8 locus” value (IL-8 (CXCL8) promoter [6]; FIG. 1h left)?
**A.** Its value is “substantially reduced”.

**Q.** And the “pSer2 pol II binding to the promoter of PSA (KLK3)” value (PSA (KLK3) promoter)?
**A.** The value was “significantly increased”.

**Q.** And the “AR binding at the IL-8 promoter (in silico ChIP-Seq analysis, GSE83860)” value (IL-8 (CXCL8) promoter [7]; DHT 100 nM, FIG. 1g top)?
**A.** Its value is “found AR binding at the IL-8 promoter”.

**Q.** With TNFα as the compound, how does the “IL-8 expression (qRT-PCR)” value (IL-8 [5]) read?
**A.** The value was “upregulated IL-8 expression in a dose-dependent manner”.

**Q.** What about the “p65 binding at the IL-8 (CXCL8) promoter (ChIP-Seq, GSE83860)” value (IL-8 (CXCL8) promoter [7]; TNFα 1000 U/ml, FIG. 1g bottom) of the same compound?
**A.** The value was “significantly increased p65 binding”.
